Series [1] deals with cat fleas (Ctenocephalides felis). Kind of series: Contact activity against cat fleas (LC50, % kill). Particulars: for % Kill: percent of a sample of cat fleas killed at a concentration of 1.26 μg/cm^2; for LC50: concentration required to kill 50% of the sample of cat fleas on contact; for pest or weed control at 1.26 µg/cm2, 1.26 µg/cm2: Ctenocephalides felis, read-out: % Kill. An excerpt: (§1) Exemplified compounds of Formula 1 are listed by Tables 1a and 1b, above. The activity of these compounds against Haemonchus contortus and cat fleas (Ctenocephalides felis) is summarized by Table 7, below.

In another series the test system is Haemonchus contortus. The series is described as follows: Activity against Haemonchus contortus (LD99). Particulars: dose required to kill 99% of the sample of Haemonchus contortus.
From the text: as §1
The LD99 value is the dose, expressed as μg/ml, that was required to kill 99% of the sample of Haemonchus contortus.

As usually defined, the EC99 is the point of the concentration-response curve where the effect stands at 99%. The low end stands for an effect from little substance, the high end for a need for much substance.

`N#C/C(=C\c1ccc[nH]1)c1cccc(Oc2ccccc2)c1` [Compound 71]: in series [1], the “% Kill” value is on record as 10%. In the series with Haemonchus contortus, the LD99 was 3.25 µg/mL.

On to `N#C/C(=C\c1ccc[nH]1)c1cccc(F)c1` [Compound 10], for which, in series [1], the LC50 amounted to 0.78 μg/cm^2 and the “% Kill” value is 78%. The compound further registered an LD99 in the series with Haemonchus contortus of 1.625 µg/mL.

For the compound `CCOCn1cccc1/C=C(\C#N)c1ccccc1F` [Compound 55], the “% Kill” value in series [1] was 10%. Moreover, the LD99 result with Haemonchus contortus was “— (the symbol ‘—’ indicates tested but inactive up to 15 μg/ml)”.

Regarding `N#C/C(=C\c1ccc[nH]1)c1ccc(F)cc1` [Compound 28], in series [1], the LC50 is recorded as 0.295 μg/cm^2 and the “% Kill” value was 19%. This compound also registered an LD99 with Haemonchus contortus of 2.5 µg/mL.

Turning to `N#C/C(=C\c1ccc[nH]1)c1ccc(F)c(Br)c1` [Compound 73], the “% Kill” value in series [1] came out at 7%. Besides, the LD99 in the series with Haemonchus contortus was determined as 0.469 µg/mL.

As to `Cn1cccc1/C=C(\C#N)c1ccc(Cl)cc1` [Compound 6, (Z)-2-(4-Chloro-phenyl)-3-(1-methyl-1H-pyrrol-2-yl)acrylonitrile], the pest or weed control at 1.26 µg/cm2, 1.26 µg/cm2 in series [1] is 13%. The compound also showed a concentration for an effect of 99% (EC99) in the series with Haemonchus contortus of 1.88 µg/mL.

Regarding `N#C/C(=C\c1ccc[nH]1)c1ccc(Cl)c(Cl)c1` [Compound 27], the “% Kill” value in series [1] stood at 78%. This compound showed an LD99 with Haemonchus contortus of 0.406 µg/mL.

Regarding `CCN(CC)C(=O)n1cccc1/C=C(\C#N)c1ccc(Cl)cc1` [Compound 78], the “% Kill” value in series [1] was 8%. The LD99 in the series on Haemonchus contortus is 3.5 µg/mL.

As for `N#C/C(=C\c1ccc[nH]1)c1ccc(F)c(Cl)c1` [Compound 81], the “% Kill” value in series [1] is 5%. The same compound registered an LD99 with Haemonchus contortus of 1.25 µg/mL.

In the case of `N#C/C(=C\c1ccc[nH]1)c1cccc(C(F)(F)F)c1` [Compound 9], in series [1], the LC50 came to 9.94 μg/cm^2 and the “% Kill” value is given as 56%. The compound also displayed an LD99 with Haemonchus contortus of 0.938 µg/mL.

Regarding `N#C/C(=C\c1ccc[nH]1)c1ccccc1` [Compound 35], the “% Kill” value in series [1] is 21%. Besides, the LD99 result with Haemonchus contortus was “— (the symbol ‘—’ indicates tested but inactive up to 15 μg/ml)”.

On to `CC(C)(C)OC(=O)n1cccc1/C=C(\C#N)c1ccc(Cl)cc1` [Compound 79], for which the “% Kill” value in series [1] worked out at 9%. For the same compound, the LD99 in the series with Haemonchus contortus is 3.75 µg/mL.

Regarding `N#C/C(=C\c1cccn1C(=O)c1ccccc1)c1ccc(Cl)cc1` [Compound 82], the “% Kill” value in series [1] is 6%. Further, the LD99 with Haemonchus contortus was 1.25 µg/mL.

`CCOCn1cccc1/C=C(\C#N)c1ccc(F)cc1F` [Compound 60]: in series [1], the “% Kill” value amounted to 19%. Moreover, the LD99 result in the series with Haemonchus contortus was “— (the symbol ‘—’ indicates tested but inactive up to 15 μg/ml)”.

`CCOCn1cccc1/C=C(\C#N)c1ccc(C(F)(F)F)cc1` [Compound 8]: the “% Kill” value in series [1] turned out to be 6%. In addition, in the series on Haemonchus contortus, the LD99 was found to be 5 µg/mL.

Take `N#C/C(=C\c1ccc[nH]1)c1ccc2ccccc2c1` [Compound 66, 2-(2-naphthyl)-3-(1H-pyrrol-2-yl)acrylonitrile]: in series [1], the pest or weed control at 1.26 µg/cm2, 1.26 µg/cm2 came out at 28%. Besides, in the series with Haemonchus contortus, the EC99 was found to be 2.5 µg/mL.

As to `CCOCn1cccc1/C=C(\C#N)c1ccc(Cl)cc1` [Compound 7, (Z)-2-(4-Chloro-phenyl)-3-(1-ethoxymethyl-1H-pyrrol-2-yl)acrylonitrile], the pest or weed control at 1.26 µg/cm2, 1.26 µg/cm2 in series [1] was 6%. In the series on Haemonchus contortus, it took 5.5 µg/mL to reach the 99% level (EC99).

`N#C/C(=C\c1ccc[nH]1)c1cccc(Cl)c1` [Compound 1]: in series [1], the “% Kill” value turned out to be 28%. Moreover, the LD99 with Haemonchus contortus turned out to be 0.75 µg/mL.

On to `N#C/C(=C\c1ccc[nH]1)c1cc(C(F)(F)F)cc(C(F)(F)F)c1` [Compound 68], for which, in series [1], the “% Kill” value stood at 27%. The LD99 entry with Haemonchus contortus is “— (the symbol ‘—’ indicates tested but inactive up to 15 μg/ml)”.

`N#C/C(=C\c1ccc[nH]1)c1ccc(F)cc1Cl` [Compound 74]: the “% Kill” value in series [1] came to 30%. The compound also displayed an LD99 in the series with Haemonchus contortus of 3 µg/mL.

On to `N#C/C(=C\c1cc(Br)c[nH]1)c1cccc(F)c1` [Compound 31], for which, in series [1], the “% Kill” value was 27%. The compound also registered an LD99 with Haemonchus contortus of 1.75 µg/mL.

On to `Cc1ccc(/C(C#N)=C/c2ccc[nH]2)c(C)c1` [Compound 88], for which the “% Kill” value in series [1] is 44%. Also, the LD99 entry with Haemonchus contortus was “— (the symbol ‘—’ indicates tested but inactive up to 15 μg/ml)”.

Take `N#C/C(=C\c1ccc[nH]1)c1ccc(Cl)cc1Cl` [Compound 13]: the “% Kill” value in series [1] turned out to be 8%. For the same compound, the LD99 with Haemonchus contortus worked out at 3 µg/mL.

On to `N#C/C(=C\c1cc(Br)c[nH]1)c1ccc(C(F)(F)F)cc1` [Compound 11], for which, in series [1], the “% Kill” value came out at 18%. Also, in the series with Haemonchus contortus, the LD99 entry was “— (the symbol ‘—’ indicates tested but inactive up to 15 μg/ml)”.

As for `COC(=O)n1cccc1/C=C(\C#N)c1ccc(Cl)cc1` [Compound 85], the “% Kill” value in series [1] was determined as 16%. The LD99 in the series with Haemonchus contortus is 1.25 µg/mL.

For the compound `CCOCn1cccc1/C=C(\C#N)c1ccc(C)cc1` [Compound 64], the “% Kill” value in series [1] is on record as 20%. Moreover, the LD99 entry with Haemonchus contortus was “— (the symbol ‘—’ indicates tested but inactive up to 15 μg/ml)”.

Take `CCC(=O)n1cccc1/C=C(\C#N)c1ccc(Cl)cc1` [Compound 76, (Z)-2-(4-Chlorophenyl)-3-(1-propanoyl-1H-pyrrol-2-yl)acrylonitrile]: the pest or weed control at 1.26 µg/cm2, 1.26 µg/cm2 in series [1] was found to be 12%. In addition, the 99% effect level with Haemonchus contortus (EC99) was put at 0.375 µg/mL.

For the origin of these results see patent US7705038B2, “Control of parasites in animals by the use of parasiticidal 2-phenyl-3-(1H-pyrrol-2-yl)acrylonitrile derivatives” (Intervet, Inc., priority 2004, dated 2010).
